Assay [1] has as its system apple powdery mildew. Briefly: Example 1: foliar applications on jonagold apple trees, control of apple powdery mildew. The class given is in vivo, Podosphaera leucotricha. To be noted: jonagold trees about 9 years old; five foliar sprays at 14 day intervals, about 300 L/ha; incidence of disease observed about a week after last treatment; rates (own compound 50 g active/ha, silicone surfactant 584 mL/ha, Regulaid surfactant 0.125% v/v, methylated seed oil 0.06% v/v, kresoxim-methyl 224, penthiopyrad 234 g active/ha). The source says: Applicant conducted the following study to determine the effect of 3-(difluoromethyl)-1-methyl-N-[(3R)-1,1,3-trimethyl-2,3-dihydroinden-4-yl]pyrazole-4-carboxamide foliar applications on fungal infections in apple trees.
A 40% suspension concentrate formulation was used as the source of 3-(difluoromethyl)-1-methyl-N-[(3R)-1,1,3-trimethyl-2,3-dihydroinden-4-yl]pyrazole-4-carboxamide (available from Sumitomo Chemical Company, Tokyo, Japan).
Regulaid® is a nonionic surfactant and was used as the source of the 2-butoxyethanol, poloxalene, and monopropylene glycol surfactant (Regulaid is available from and a registered trademark of KALO, Inc). Regulaid® contains about 90.6% of 2-butoxyethanol, poloxalene, and monopropylene glycol.
Sovran® was used as the source of kresoxim-methyl (available from and a registered trademark of BASF Corporation).
Fontelis® was used as the source of penthiopyrad (available from and a registered trademark of E.I. du Pont).
Slygard® 309 was used as the source of a mixture of 3-(3-hydroxypropyl)-heptamethyltrisiloxane-ethoxylated acetate, polyethylene glycol monallyl acetate and polyethylene glycol diacetate silicone containing surfactant (available from and a registered trademark of Wilbur-Ellis Company). Slygard® 309 contains 100% of the mixture of surfactants.

The subject of a further assay is Apples, jonagold variety. Briefly: Example 2: fruit finish quality of treated apple trees. The class given is in vivo. Conditions: 80 days after 7th treatment. As to the method: (§1) 30, 2015. […] Pest incidence, pest severity, and fruit finish were measured.
In assay [2] the test system is apple powdery mildew. The assay is described as follows: Example 2: foliar applications on jonagold apple trees, incidence and severity of apple powdery mildew. The class given is in vivo, Podosphaera leucotricha. As for the experimental part: Applicant conducted the following study to determine the effect of a 3-(difluoromethyl)-1-methyl-N-[(3R)-1,1,3-trimethyl-2,3-dihydroinden-4-yl]pyrazole-4-carboxamide foliar applications on fungal infections in apple trees.
as §1
SYL-COAT™ was used as the source of polyether-polymethylsiloxane-copolymer and polyether silicone containing surfactant (available from Wilbur-Ellis Company).

[3] abbreviates: 8 days after 4th treatment, rates (own compound 50 g/ha, penthiopyrad 234 g/ha, kresoxim-methyl 224 g/ha, silicone surfactant 8 fl oz/a, Regulaid surfactant 0.125% v/v).

For the compound `C[C@@H]1CC(C)(C)c2cccc(NC(=O)c3cn(C)nc3C(F)F)c21` [3-(Difluoromethyl)-1-methyl-N-[(3R)-1,1,3-trimethyl-2,3-dihydroinden-4-yl]pyrazole-4-carboxamide], the “% Control” value in the assay with apple powdery mildew [1] was found to be 67%. Further, the “Fruit Finish Quality (0 lowest-10 highest)” value (“Fruit Finish Quality” for short) in the assay on Apples, jonagold variety is reported as 7.5000 b. In addition, the “Incidence of Apple Powdery Mildew (%)” value with apple powdery mildew [2] (2 days after 5th treatment) stood at 11.5303 bc %; in the assay with apple powdery mildew [2] (3 days after 6th treatment) it was 20.4938 c %; in the assay with apple powdery mildew [2] (setting [3]) it was 13.0000 b %. Also, the “Severity of Apple Powdery Mildew (%)” value in the assay on apple powdery mildew [2] (2 days after 5th treatment) worked out at 1.6836 bc %; in the assay with apple powdery mildew [2] (3 days after 6th treatment) it was 4.4196 c %; in the assay with apple powdery mildew [2] (9 days after 7th treatment), 11.5331 bc %.

For the compound `CO/N=C(/C(=O)OC)c1ccccc1COc1ccccc1C` [Kresoxim-methyl, kresoxim-methyl], the “% Control” value in the assay on apple powdery mildew [1] is 63%. Also, the “Fruit Finish Quality” value in the assay with Apples, jonagold variety is given as 8.2500 b. For the same compound, the “Incidence of Apple Powdery Mildew (%)” value with apple powdery mildew [2] (2 days after 5th treatment) was determined as 3.4874 cd %; in the assay on apple powdery mildew [2] (3 days after 6th treatment), 12.0332 cd %; in the assay on apple powdery mildew [2] (setting [3]) it was 8.7500 bc %. For the same compound, the figures for the “Severity of Apple Powdery Mildew (%)” value in the assay with apple powdery mildew [2] (2 days after 5th treatment), in the assay with apple powdery mildew [2] (3 days after 6th treatment) and in the assay with apple powdery mildew [2] (9 days after 7th treatment) were 0.8465 cd %, 2.9013 c % and 9.0294 bc %, respectively.

In the case of `CC(C)CC(C)c1sccc1NC(=O)c1cn(C)nc1C(F)(F)F` (stereo not drawn) [Penthiopyrad, penthiopyrad], the “% Control” value in the assay on apple powdery mildew [1] is reported as 71%. The “Fruit Finish Quality” value in the assay on Apples, jonagold variety is 8.0000 b. Further, the figures for the “Incidence of Apple Powdery Mildew (%)” value in the assay with apple powdery mildew [2] (2 days after 5th treatment), in the assay on apple powdery mildew [2] (3 days after 6th treatment) and with apple powdery mildew [2] (setting [3]) were 1.4675 cd %, 2.5965 ef % and 7.5000 bc %, respectively. The “Severity of Apple Powdery Mildew (%)” value is recorded as 0.6379 cd % in the assay with apple powdery mildew [2] (2 days after 5th treatment), 0.7932 d % in the assay on apple powdery mildew [2] (3 days after 6th treatment) and 7.8439 c % in the assay with apple powdery mildew [2] (9 days after 7th treatment).

Values taken from US9615579B2, “Compositions for powdery mildew control and methods of their use” (Valent U.S.A., Corporation, priority 2015, dated 2017).
